# Laboratory results as given in patent US9434994B2, “Methods for prediction of clinical outcome to epidermal growth factor receptor inhibitors by non-small cell lung cancer patients” (The Regents of the University of Colorado, a body corporate, priority 2004, dated 2016).
# Where “and” joins values, the source holds several entries; their conditions need not be identical. Equal entries are not always repeated. Where two headings read alike, the source gives them in different places.
# Tested on: advanced non-small-cell lung cancer patients
# [1] = EGFR FISH Group 1 (disomy to low polysomy)
# [2] = EGFR FISH Group 2 (high polysomy, amplification)
# [3] = EGFR FISH- and/or P-Akt- (any negative)
# [4] = EGFR IHC- and/or P-Akt- (any negative)
# [5] = EGFR mutation- and/or P-Akt- (any negative)
# [6] = HER2 FISH+ and/or EGFR IHC+ (other three groups combined)
# Method: Eligibility included histologically confirmed NSCLC patients with measurable, locally advanced or metastatic disease, who had progressed or relapsed after chemotherapy, and patients ineligible for chemotherapy because they were elderly, had poor performance status, or comorbid medical condition. Before trial inclusion, smoking status was assessed and patients were classified as never, former (smoking cessation >6 months prior to trial inclusion), or current smokers (cessation <6 months before trial inclusion or active smoker).
# Patients were evaluated for response according to the RECIST criteria (30). Tumor response was assessed by computer tomography scan every two months, with a confirmatory evaluation to be repeated in responding patients at least 4 weeks after the initial determination of response. […] Survival (OS) was calculated from the date of therapy initiation to the date of death or last contact.
# Differences between the FISH groups were compared by Fisher's exact test or χ^2 test for qualitative variables and by t-student test or ANOVA for continuous variables. Normality of the distribution was assessed by Kolmogorov-Smirnov test. […] Risk factors associated with survival were evaluated using Cox's proportional-hazards regression model with a step-down procedure (33). Only those variables with significant results in univariate analysis were included in the multivariate analysis. The criteria for variable removal was the likelihood ratio statistic based on the maximum partial likelihood estimated (default p-value=0.10 for removal from the model).
# Complete clinical information and tissue blocks were available from 80 out of 106 patients enrolled in the Akt clinical trial (Cappuzzo et al., ibid.), and from an additional 22 patients in the Expanded Access Study who were treated consecutively at the end of the Akt study and followed in the same way as patients in the Akt trial.
# Eligibility for both studies included histologically confirmed NSCLC with measurable, locally advanced or metastatic disease, progressing or relapsing after chemotherapy or with medical contraindications for chemotherapy. Patients had performance status ranging from grade 0 to 2. Performance status was defined according to Eastern Cooperative Oncology Group (Oken et al., 1982) and considered grade 0 when the patient was fully active and able to perform all pre-disease activities without restriction, grade 1 when the patient was restricted in physically strenuous activity but ambulatory and able to perform work of a light or sedentary nature, and grade 2 when the patient was ambulatory and capable of all self-care but unable to perform any work activities.
# Tumor response was assessed by computer tomography scan after 2 months, with a confirmatory evaluation to be repeated in responders and in patients with stable disease at least 4 weeks after the initial determination of response. […] Survival was calculated from the date of therapy initiation to the date of death or to the date of last contact.
# Differences between and among groups were compared using Fisher's exact test or Pearson's chi square test for qualitative variables and using student's t test or analysis of variance for continuous variables. Normality of the distribution was assessed using the Kolmogorov-Smirnov test (Curiel et al., 1990).
structure (smiles),measurement,setting,value
COc1cc2ncnc(Nc3ccc(F)c(Cl)c3)c2cc1OCCCN1CCOCC1 [gefitinib],Patients progressed at 12 months,EGFR FISH Group 1,91%
same,Two-year survival rate,EGFR FISH Group 1,17%
same,% Patients without disease progression at 12 months,[1],8.7%
same,Complete and Partial Response,[1],2.9%
same,Median Time to Progression,[1],2.5 months
same,One-year Survival Rate,[1],36.2%
same,Progressive Disease,[1],73.9%
same,Stable Disease,[1],23.2%
same,Patients progressed at 12 months,EGFR FISH Group 2,61%
same,Two-year survival rate,EGFR FISH Group 2,40%
same,% Patients without disease progression at 12 months,[2],39.4%
same,Complete and Partial Response,[2],36% and 36.4%
same,Disease Control Rate,[2],66.7%
same,Median Time to Progression,[2],6.3 months
same,One-year Survival Rate,[2],63.6%
same,Progressive Disease,[2],33.3%
same,Stable Disease,[2],30.3%
same,% Patients without disease progression at 12 months,EGFR FISH disomy,8.3%
same,Complete and Partial Response,EGFR FISH disomy,no responders
same,Median Time to Progression,EGFR FISH disomy,2.5 months
same,One-year Survival Rate,EGFR FISH disomy,38.9%
same,Progressive Disease,EGFR FISH disomy,75%
same,Stable Disease,EGFR FISH disomy,25.0%
same,% Patients without disease progression at 12 months,EGFR FISH high polysomy,35.0%
same,Disease Control Rate,EGFR FISH high polysomy,60.0%
same,Median Time to Progression,EGFR FISH high polysomy,6.6 months
same,One-year Survival Rate,EGFR FISH high polysomy,65.0%
same,Progressive Disease,EGFR FISH high polysomy,40%
same,Stable Disease,EGFR FISH high polysomy,35%
same,% Patients without disease progression at 12 months,EGFR FISH high trisomy,100%
same,Complete and Partial Response,EGFR FISH high trisomy,100%
same,Disease Control Rate,EGFR FISH high trisomy,100%
same,Median Overall Survival,EGFR FISH high trisomy,13.7 months
same,One-year Survival Rate,EGFR FISH high trisomy,100%
same,% Patients without disease progression at 12 months,EGFR FISH low polysomy,0%
same,Complete and Partial Response,EGFR FISH low polysomy,no responders
same,Disease Control Rate,EGFR FISH low polysomy,14.3%
same,Median Overall Survival,EGFR FISH low polysomy,3.0 months
same,Median Time to Progression,EGFR FISH low polysomy,2.1 months
same,Progressive Disease,EGFR FISH low polysomy,86% and 85.7%
same,Stable Disease,EGFR FISH low polysomy,14.3%
same,% Patients without disease progression at 12 months,EGFR FISH low trisomy,5.9%
same,Complete and Partial Response,EGFR FISH low trisomy,no responders
same,Disease Control Rate,EGFR FISH low trisomy,29.4%
same,Median Overall Survival,EGFR FISH low trisomy,10.2 months
same,Median Time to Progression,EGFR FISH low trisomy,3.6 months
same,One-year Survival Rate,EGFR FISH low trisomy,41.2%
same,Progressive Disease,EGFR FISH low trisomy,71% and 70.6%
same,Stable Disease,EGFR FISH low trisomy,29.4%
same,1-year Cumulative Survival ± SD,EGFR FISH+/P-Akt+,33 ± 9%
same,Median Survival,EGFR FISH+/P-Akt+,18.7 months
same,1-year Cumulative Survival ± SD,EGFR FISH+/P-Akt-,75 ± 22%
same,Median Time to Progression,EGFR FISH+/P-Akt-,1.1 months
same,Objective Response,EGFR FISH+/P-Akt-,0%
same,Disease Control Rate,[3],28% and 19/27%
same,Median Time to Progression,[3],2.5 months
same,Objective Response,[3],3% and 2/3%
same,Median Time to Progression,EGFR FISH-/P-Akt+,2.6 months
same,Objective Response,EGFR FISH-/P-Akt+,5% and 2/5%
same,1-year Cumulative Survival ± SD,EGFR FISH-/P-Akt-,57 ± 9%
same,Disease Control Rate,EGFR FISH-/P-Akt-,6/22%
same,Median Time to Progression,EGFR FISH-/P-Akt-,2.4 months
same,Objective Response,EGFR FISH-/P-Akt-,0%
same,1-year survival,EGFR IHC score 0-99,27% and 27 ± 10%
same,MS (median overall survival),EGFR IHC score 0-99,4.5 mo
same,PD (progressive disease),EGFR IHC score 0-99,19 (95%)
same,TTP,EGFR IHC score 0-99,2.1 mo
same,1-year survival,EGFR IHC score 100-199,35% and 35 ± 10%
same,MS (median overall survival),EGFR IHC score 100-199,5.3 mo
same,OR (objective response),EGFR IHC score 100-199,2 (10%)
same,TTP,EGFR IHC score 100-199,2.3 mo
same,MS (median overall survival),EGFR IHC score 200-299,15.2 mo
same,OR (objective response),EGFR IHC score 200-299,4 (26%)
same,PD (progressive disease),EGFR IHC score 200-299,5 (33%)
same,MS (median overall survival),EGFR IHC score 300-400,11.3 mo
same,PD (progressive disease),EGFR IHC score 300-400,21 (49%)
same,TTP,EGFR IHC score 300-400,4.5 mo
same,1-year survival,EGFR IHC+ (≧200),48 ± 7%
same,MS (median overall survival),EGFR IHC+ (≧200),11.5 mo
same,TTP,EGFR IHC+ (≧200),5.2 mo
same,Median Time to Progression,EGFR IHC+/P-Akt+,6.2 months
same,1-year Cumulative Survival ± SD,EGFR IHC+/P-Akt-,35 ± 12%
same,Median Time to Progression,EGFR IHC+/P-Akt-,1.8 months
same,Objective Response,EGFR IHC+/P-Akt-,0%
same,1-year survival,EGFR IHC- (<200),31 ± 7%
same,MS (median overall survival),EGFR IHC- (<200),5.0 mo
same,TTP,EGFR IHC- (<200),2.3 mo
same,1-year Cumulative Survival ± SD,[4],35 ± 7%
same,Median Time to Progression,[4],2.3 months
same,Objective Response,[4],4% and 2/3%
same,Disease Control Rate,EGFR IHC-/P-Akt+,7/27%
same,Median Time to Progression,EGFR IHC-/P-Akt+,2.3 months
same,Objective Response,EGFR IHC-/P-Akt+,2/8%
same,1-year Cumulative Survival ± SD,EGFR IHC-/P-Akt-,54 ± 8%
same,Disease Control Rate,EGFR IHC-/P-Akt-,1/7%
same,Median Survival,EGFR IHC-/P-Akt-,4.2 months
same,Median Time to Progression,EGFR IHC-/P-Akt-,2.0 months
same,Objective Response,EGFR IHC-/P-Akt-,0%
same,Median Survival,EGFR Mutation+/P-Akt+,20.8 months
same,Median Time to Progression,EGFR Mutation+/P-Akt+,11.2 months
same,Disease Control Rate,EGFR Mutation+/P-Akt-,0%
same,Median Survival,EGFR Mutation+/P-Akt-,3.1 months
same,Median Time to Progression,EGFR Mutation+/P-Akt-,1.1 months
same,Objective Response,EGFR Mutation+/P-Akt-,0%
same,1-year Cumulative Survival ± SD,EGFR Mutation-/P-Akt+,50 ± 35%
same,Median Time to Progression,EGFR Mutation-/P-Akt+,2.7 months
same,Objective Response,EGFR Mutation-/P-Akt+,4/9%
same,1-year Cumulative Survival ± SD,EGFR Mutation-/P-Akt-,65 ± 14%
same,Disease Control Rate,EGFR Mutation-/P-Akt-,6/22%
same,Median Time to Progression,EGFR Mutation-/P-Akt-,2.4 months
same,Objective Response,EGFR Mutation-/P-Akt-,0%
same,% Patients without disease progression at 12 months,EGFR gene amplification,46.2%
same,Complete and Partial Response,EGFR gene amplification,53.8% and 54%
same,Disease Control Rate,EGFR gene amplification,76% and 76.9%
same,Median Time to Progression,EGFR gene amplification,6.0 months
same,One-year Survival Rate,EGFR gene amplification,61.5%
same,Progressive Disease,EGFR gene amplification,23.1%
same,Stable Disease,EGFR gene amplification,23.1%
same,1-year survival,EGFR mutation absent,38 ± 6
same,PD,EGFR mutation absent,50 (68%)
same,TTP,EGFR mutation absent,2.6 mo
same,1-year survival,EGFR mutation present,57 ± 13
same,MS,EGFR mutation present,20.8 mo
same,TTP,EGFR mutation present,9.9 mo
same,Disease Control Rate,[5],32% and 23/31%
same,Median Time to Progression,[5],2.6 months
same,Objective Response,[5],6% and 4/5%
same,DCR,HER2 FISH+,56.5%
same,OR,HER2 FISH+,34.8%
same,OS,HER2 FISH+,20.8 months
same,TTP,HER2 FISH+,9.05 months
same,DCR,HER2 FISH+ and/or EGFR FISH+,57.1%
same,OR,HER2 FISH+ and/or EGFR FISH+,28.6%
same,DCR,[6],51.5%
same,OR,[6],19.1%
same,OR,HER2 FISH+ and/or EGFR mutation+ (other groups combined),30.8%
same,DCR,HER2 FISH+/EGFR FISH+,76.9%
same,OR,HER2 FISH+/EGFR FISH+,53.8%
same,median OS,HER2 FISH+/EGFR FISH+,20.8 months
same,median TTP,HER2 FISH+/EGFR FISH+,9.8 months
same,OR,HER2 FISH+/EGFR FISH-,21.0%
same,median TTP,HER2 FISH+/EGFR FISH-,2.3 months
same,DCR,HER2 FISH+/EGFR IHC+,76.9%
same,OR,HER2 FISH+/EGFR IHC+,53.8%
same,OS,HER2 FISH+/EGFR IHC+,20.8 months
